Results taken from patent US20220098197A1, “SALTS OF HETEROCYCLIC COMPOUND AND USE THEREOF” (priority 2019, published 2022).

What was measured:
LPS-induced ALI mice [1] = assay: LPS-induced ALI model: albumin in BALF; type: in vivo, Balb/c mice; conditions: CT-NA 10 mg/kg (P<0.05) and 30 mg/kg (P<0.01), Dex 1 mg/kg (P<0.01); 24 hrs after LPS
Procedure: (§1) Evans Blue was a dye that could quickly bind to albumin and was remains restricted within blood vessels because the endothelium was impermeable to albumin under normal physiological conditions. Pulmonary microvascular permeability was assessed by measuring the extravasation of Evans blue dye in the lungs. The method was briefly described as follows. The mice were randomly divided into control group (12 mice) and LPS group (48 mice). The LPS group (48 mice) was further divided into four subgroups (each subgroup contains 12 mice). To measure pulmonary microvascular permeability, the unanaesthetized mice of LPS group received intragastric instillation of NS, CT-NA at 10 mg/kg or 30 mg/kg, or Dex at 1 mg/kg respectively. One hour later, the anaesthetized mice were intratracheally instilled with NS (control group) and LPS (all LPS subgroups) at 10 μl/10 g of body weight. […] And then the absorbance of the Evans blue dye extracted in the supernatant was measured against formamide blank at 620 nm via standard curve method, and expressed as microgram of dye per 100 mg of wet lung weight. In addition, the concentration of albumin in BALF was measured at 628 nm using a spectrophotometer and an albumin measurement kit. The albumin concentration ratio assessed from BALF represented not only the albumin level but also the permeability of the pulmonary microvascular.

LPS-induced ALI mice [2] = assay: LPS-induced ALI model: pulmonary vascular permeability by Evans blue dye; type: in vivo, Balb/c mice; conditions: CT-NA 10 mg/kg (P<0.05) or 30 mg/kg (P<0.01), Dex 1 mg/kg (P<0.01)
Procedure: as §1

LPS-induced ALI mice [3] = assay: LPS-induced ALI model: histological examination (H&E); type: in vivo, Balb/c mice
Procedure: Specific pathogen-free (SPF) Balb/c mice (♂/♀; 20-26 g; 8 weeks old) were purchased from Shanghai SIPPR-BK Experimental Animal Co., Ltd. Mice were kept in an isolated ventilated cage in an environment of 40-60% humidity, 24±2° C., and 12 hrs/12 hrs dark-light cycle, and had free access to food and water. The method for preparing the LPS-induced ALI model was simply described as follows. The mice were randomly divided into a control group (12 mice) and an LPS group (48 mice). The LPS group (48 mice) was further divided into four subgroups (12 mice in each subgroup). The unanaesthetized mice in the four subgroups of LPS were intragastrically administered with normal saline (NS), CT-NA at 10 mg/kg or 30 mg/kg, and Dex at 1 mg/kg, respectively. […] 24 hrs after LPS challenge, the oxygen saturation (SO2) of all mice was measured by a Moor VMS-OXY™ instrument which measured SO2 (%) in the microcirculation at the wavelength range of 500 to 650 nm. […]
The lower lobe of the left lung of each mouse was inflated with neutral buffered 10% formalin instilled at room temperature under constant pressure of 22 to 25 cm H2O for 48 hrs. […] Pulmonary edema, hemorrhage, alveolar wall thickening and infiltration of neutrophils and inflammatory cells were counted and scored to evaluate the severity of lung injury. […] The total lung injury score was expressed as the sum of the four criteria. […]

RAW264.7 macrophages = assay: In vitro ELISA assay, LPS- or PGD2-stimulated RAW264.7; type: cell-based, mouse; conditions: CT-NA 10 and 100 μM, dose-dependent
Procedure: For ELISA and RT-PCR, RAW 264.7 macrophages were acclimated to two 12-well plates at 70-80% confluence. Thereafter, the medium in the 12-well plate was replaced with serum-free RPMI-1640 medium for 10-12 hrs and then exposed to CT-NA (10 and 100 μM) for 1 hour. One hour later, one 12-well plate was treated with LPS (100 ng/ml) for 24 hrs, and the other was treated with PGD2 (10 μM) for 24 hrs. After the treatment, the supernatant of the treated cells was collected to measure the protein levels of TNF-α, IL-1β, IL-6, and KC using ELISA kits according to the method of the instructions. Subsequently, RNA samples from each treated plate were extracted and reverse-transcripted into cDNA with HiScript5xQRTSuperMix, and then subjected to RT-PCR using BioRad CFX96 Touch™ real-time PCR detection system (San Diego, Calif.). Similarly, total RNAs extracted from treated isolated peritoneal macrophages were subjected to analyze the mRNA levels of IL-10, TNF-α, IL-6 and KC. The primers used in the RT-PCR reaction were shown in Table 2. β-actin was used as an internal control. The RT-PCR reactions were triplicated and the relative expression of target mRNA was normalized by the respective β-actin.

What does the source list for `CN([C@@H]1CCc2c(CC(=O)[O-])c3cccnc3n2C1)S(=O)(=O)c1ccc(F)cc1.[Na+]` [Sodium salt hydrate]?
albumin content in BALF (LPS-induced ALI mice [1]): considerably reduced; LPS-induced pulmonary vascular leakage and extravasation of Evans Blue dye (LPS-induced ALI mice [2]): significantly reduced; pathological scores (LPS-induced ALI mice [3]; CT-NA 10 mg/kg (P<0.05) and 30 mg/kg (P<0.01), Dex 1 mg/kg (P<0.01)): considerably reduced; LPS-induced pulmonary histopathological changes (LPS-induced ALI mice [3]; CT-NA 10 or 30 mg/kg (dose dependence) or Dex 1 mg/kg, H&E): significant reduction; protein expression of IL-1β, TNF-α, IL-6 and KC in response to LPS (RAW264.7 macrophages; LPS (100 ng/ml) 24 hrs): inhibited; protein expression of IL-1β, TNF-α, IL-6 and KC in response to PGD2 (RAW264.7 macrophages; PGD2 (10 μM) 24 hrs): inhibited
